Laboratory results reported in patent publication US20230255943A1, “MMP-9 AND MMP-12 INHIBITION FOR TREATING SPINAL CORD INJURY OR RELATED INJURY TO NEUROLOGICAL TISSUE” (The University of Birmingham, priority 2020, published 2023).

Tested on: SCI-induced oedema
Assay: Example 3: spinal cord water content with aquaporin-4 relocalisation inhibitors
Settings: in vivo
Experimental: The lesion site+3 mm either side for mice and the lesion site+5 mm either side for the rat DC model were dissected out and the water content of the spinal cord (as a measure of oedema) was determined at 3 days after DC and CC SCI, as described previously (S. Li, C. H. Tator, Effects of MK801 on evoked potentials, spinal cord blood flow and cord edema in acute spinal cord injury in rats. Spinal Cord 37, 820-832 (1999)). Spinal cords containing the lesion site were weighed on aluminium foil, dried at 105° C. for 24 hr, and re-weighed. The percent water content was calculated as: water content (%)=[(wet weight-dry weight)/wet weight]×100%.
Using similar techniques to those described in Example 1, the water content in the spinal cord as a measure of injury-induced oedema was determined for various agents and aquaporin-4 inhibitors, namely TFP, PKAi, PKCi and TGN-020—see FIG. 21.

Structure (SMILES)	SCI-induced oedema, water content (FIG. 21)
CN1CCN(CCCN2c3ccccc3Sc3ccc(C(F)(F)F)cc32)CC1 [TFP, trifluoperazine]	suppress SCI-induced oedema
O=C(Nc1nncs1)c1cccnc1 [TGN-020, N-1,3,4-Thiadiazol-2-yl-3-pyridinecarboxamide]	suppress SCI-induced oedema
